Key:
[1] = target: T1, C4760 DNA polymerase (a variant of DPO4, SEQ ID NO:2) (Saccharolobus solfataricus, UniProt Q97W02, A155G/A42V/D156R/D292Y/D294N/E291S/E324K/E325K/E327K/E63R/E79L/G187P/G299W/I153V/I189F/I248T/I295S/K152A/K317Q/K321Q/K56Y/K78D/L293W/M76W/N188Y/P184Q/Q82W/Q83G/R300S/S297Y/S86E/T290K/T301W/V289W/V296Q); assay: Primer extension assay with the HIV2 100mer template; assay type: biochemical, Sulfolobus solfataricus; settings: for polymerization of XNTPs into full length Xpandomer copies (PEM activity): HIV2 100mer template, Eco SSB, 30 minutes at 23° C.
T1 construct: made in house
Description: PEM activity of compound 12 was tested in primer extension assays using the HIV2 100mer template. Primer extension reactions included the following reagents: 50 Mm TrisCl, 200 Mm NH4Oac, 20% PEG8K, 5% NMS, 0.6 nmol PP-60.20, 0.6 Mm MnCl2, 2.75 μg/μl Eco single-strand binding protein (SSB), 1 M urea, 50 pmol each XNTP, 1.1 pmol template, 1 pmol oligonucleotide primer, 1.2 μg/μl purified recombinant C4760 DNA polymerase (SEQ ID NO:2), and 0.5, 1, or 1.5 Mm PEM. 10 μL primer extension reactions were run for 30 minutes at 23° C. and reaction products were analyzed by gel electrophoresis. […] Lanes 2-4 show primer extension products from reactions with a structurally related additive lacking robust PEM activity.
PEM activity of compounds 13 and 14 was tested in primer extension assays using the HIV2 100mer template. Primer extension reactions included the following reagents: 50 Mm TrisCl, 200 Mm NH4Oac, 20% PEG8K, 5% NMS, 0.6 nmol PP-60.20, 0.6 Mm MnCl2, 2.75 μg/μl Eco single-strand binding protein (SSB), 1 M urea, 50 pmol each XNTP, 1.1 pmol template, 1 pmol oligonucleotide primer, 1.2 μg/μl purified recombinant C4760 DNA polymerase (a variant of DPO4, see SEQ ID NO:2), and 0.5, 1, 1.52, or 2.5 Mm PEM. 10 μL primer extension reactions were run for 30 minutes at 23° C. and reaction products were analyzed by gel electrophoresis. A representative gel showing primer extension products is presented in FIG. 11 (the position of the full length HIV2 100mer is indicated by the arrow).
PEM activity of compounds 16, 17, and 18 and combinations thereof were tested in primer extension assays using the HIV2-derived 100mer template. Primer extension reactions included the following reagents: 50 Mm TrisCl, 200 Mm NH4Oac, 20% or 25% PEG8K, 5% NMS, 0.6 nmol PP-60.20, 0.6 Mm MnCl2, 2 μg Kod single-strand binding protein (SSB), 1 M urea, 50 pmol each XNTP, 1 pmol template, 1 pmol oligonucleotide primer, 1.2 μg purified recombinant C4760 DNA polymerase (a variant of DPO4, see SEQ ID NO:2), and 0.5-2 Mm PEM. 10 μL primer extension reactions were run for 30 minutes at 37° C. and reaction products were analyzed by gel electrophoresis. A representative gel showing primer extension products is presented in FIG. 13 (the position of a 100mer product is indicated by the arrow).

[2] = target: T1, C4760 DNA polymerase (a variant of DPO4, SEQ ID NO:2); assay: Primer extension on a 45mer RNA template derived from the HIV2 genome sequence; assay type: biochemical, Sulfolobus solfataricus; settings: 2 Mm PEM; 45mer RNA template from HIV2 genome; 30 minutes at 37° C.
Description: To begin to investigate the potential of PEMs to enhance diverse polymerase reactions, the ability of PEMS to enable DNA polymerase to utilize RNA as a template was tested. An initial screen of several compounds set forth in Table I was conducted using a 45mer RNA template derived from the HIV2 genome sequence. Primer extension reactions included the following reagents: 50 Mm TrisCl, 200 Mm NH4Oac, 20% PEG8K, 5% NMS, 0.6 nmol PP-60.20, 0.6 Mm MnCl2, 2 μg Kod single-strand binding protein (SSB), 1 M urea, 50 pmol each XNTP, 0.5 pmol template, 0.5 pmol oligonucleotide primer, 1.2 μg purified recombinant C4760 DNA polymerase (a variant of DPO4, see SEQ ID NO:2), and 2 Mm PEM. 10 μL primer extension reactions were run for 30 minutes at 37° C. and reaction products were analyzed by gel electrophoresis.

[3] = 0.5, 1, 1.52, or 2.5 Mm PEM, FIG. 11

T1 sequence (Q97W02 other isoform, or with tags, fused parts or gaps with the stated changes): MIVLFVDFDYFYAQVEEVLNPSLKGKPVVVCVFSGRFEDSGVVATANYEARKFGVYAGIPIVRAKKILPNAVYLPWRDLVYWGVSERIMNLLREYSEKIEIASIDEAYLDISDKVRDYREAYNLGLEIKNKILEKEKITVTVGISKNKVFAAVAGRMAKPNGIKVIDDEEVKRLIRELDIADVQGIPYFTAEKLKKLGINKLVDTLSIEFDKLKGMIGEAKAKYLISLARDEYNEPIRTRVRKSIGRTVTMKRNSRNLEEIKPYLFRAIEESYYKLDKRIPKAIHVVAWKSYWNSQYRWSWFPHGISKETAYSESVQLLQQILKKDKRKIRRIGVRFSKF

Row | Compound | PEM activity on an RNA template [2] | further results
1 | N#Cc1cc(-c2cn(-c3ccc(O)c(C(=O)O)c3)nn2)nc(-c2cn(-c3ccc(O)c(C(=O)O)c3)nn2)c1 [Compound 12, 5,5′-((4-cyanopyridine-2,6-diyl)bis(1H-1,2,3-triazole-4,1-diyl))bis(2-hydroxybenzoic acid)] | – | polymerization of XNTPs into full length Xpandomer copies (PEM activity) ([1]; 0.5, 1, or 1.5 Mm PEM, FIG. 10): enables polymerization of XNTPs into full length Xpandomer copies of the 100mer template
2 | Cc1cc(-c2cn(-c3ccc(C(=O)O)c(O)c3)nn2)nc(-c2cn(-c3ccc(C(=O)O)c(O)c3)nn2)c1 [Compound 13, 4,4′-((4-methylpyridine-2,6-diyl)bis(1H-1,2,3-triazole-4,1-diyl))bis(2-hydroxybenzoic acid)] | – | polymerization of XNTPs into full length Xpandomer copies (PEM activity) [1, 3]: enables polymerization of XNTPs into full length Xpandomer copies of the 100mer template in a manner comparable to that of compound 10
3 | CCOC(=O)c1cc(-c2cn(-c3ccc(C(=O)O)c(O)c3)nn2)nc(-c2cn(-c3ccc(C(=O)O)c(O)c3)nn2)c1 [Compound 14, 4,4′-((4-(ethoxycarbonyl)pyridine-2,6-diyl)bis(1H-1,2,3-triazole-4,1-diyl))bis(2-hydroxybenzoic acid)] | – | polymerization of XNTPs into full length Xpandomer copies (PEM activity) [1, 3]: enables polymerization of XNTPs into full length Xpandomer copies of the 100mer template in a manner comparable to that of compound 10; polymerization of XNTPs into lengthy Xpandomer copies, combination of PEMs ([1]; combination of 2 Mm compound 14 and 0.1 Mm or 0.3 Mm compound 17, HIV2-derived 100mer template, FIG. 13 lanes 7-9): also enabled polymerization of XNTPs into lengthy Xpandomer copies of the 100mer template
4 | CCN(CC)C(=O)c1cc(-c2cn(-c3ccc(C(=O)O)c(O)c3)nn2)nc(-c2cn(-c3ccc(C(=O)O)c(O)c3)nn2)c1 [Compound 49, 4,4′-((4-(diethylcarbamoyl)pyridine-2,6-diyl)bis(1H-1,2,3-triazole-4,1-diyl))bis(2-hydroxybenzoic acid)] | display PEM activity on an RNA template | –
5 | O=C(O)c1ccc(-n2cc(-c3cc(C(=O)N4CCOCC4)cc(-c4cn(-c5ccc(C(=O)O)c(O)c5)nn4)n3)nn2)cc1O [Compound 51, 4,4′-((4-(morpholine-4-carbonyl)pyridine-2,6-diyl)bis(1H-1,2,3-triazole-4,1-diyl))bis(2-hydroxybenzoic acid)] | display PEM activity on an RNA template | –
6 | CCNC(=O)c1cc(-c2cn(-c3ccc(C(=O)O)c(C(F)(F)F)c3)nn2)nc(-c2cn(-c3ccc(C(=O)O)c(C(F)(F)F)c3)nn2)c1 [Compound 73, 4,4′-((4-(ethylcarbamoyl)pyridine-2,6-diyl)bis(1H-1,2,3-triazole-4,1-diyl))bis(2-(trifluoromethyl)benzoic acid)] | display PEM activity on an RNA template | –
7 | CCNC(=O)c1cc(-c2cn(-c3ccc(C(F)(F)F)c(C(=O)O)c3)nn2)nc(-c2cn(-c3ccc(C(F)(F)F)c(C(=O)O)c3)nn2)c1 [Compound 75, 5,5′-((4-(ethylcarbamoyl)pyridine-2,6-diyl)bis(1H-1,2,3-triazole-4,1-diyl))bis(2-(trifluoromethyl)benzoic acid)] | display PEM activity on an RNA template | –
8 | CCNC(=O)c1cc(-c2cn(-c3ccc(C(=O)O)c(F)c3)nn2)nc(-c2cn(-c3ccc(C(=O)O)c(F)c3)nn2)c1 [Compound 76, 4,4′-((4-(ethylcarbamoyl)pyridine-2,6-diyl)bis(1H-1,2,3-triazole-4,1-diyl))bis(2-fluorobenzoic acid)] | display PEM activity on an RNA template | –
9 | CCNC(=O)c1cc(-c2cn(-c3cc(C(=O)O)cc(C(F)(F)F)c3)nn2)nc(-c2cn(-c3cc(C(=O)O)cc(C(F)(F)F)c3)nn2)c1 [Compound 93, 5,5′-((4-(ethylcarbamoyl)pyridine-2,6-diyl)bis(1H-1,2,3-triazole-4,1-diyl))bis(3-(trifluoromethyl)benzoic acid)] | display PEM activity on an RNA template | –
10 | O=C(NCCO)c1cc(-c2cn(-c3ccc(C(=O)O)c(C(F)(F)F)c3)nn2)nc(-c2cn(-c3ccc(C(=O)O)c(C(F)(F)F)c3)nn2)c1 [Compound 105, 4,4′-((4-((2-hydroxyethyl)carbamoyl)pyridine-2,6-diyl)bis(1H-1,2,3-triazole-4,1-diyl))bis(2-(trifluoromethyl)benzoic acid)] | display PEM activity on an RNA template | –
11 | CCNC(=O)c1cc(-c2cn(-c3ccc(C(=O)O)c([N+](=O)[O-])c3)nn2)nc(-c2cn(-c3ccc(C(=O)O)c([N+](=O)[O-])c3)nn2)c1 [Compound 106, 4,4′-((4-(ethylcarbamoyl)pyridine-2,6-diyl)bis(1H-1,2,3-triazole-4,1-diyl))bis(2-nitrobenzoic acid)] | display PEM activity on an RNA template | –
12 | CCNC(=O)c1cc(-c2cn(-c3ccc(C(=O)NCC(=O)O)c(C(F)(F)F)c3)nn2)nc(-c2cn(-c3ccc(C(=O)NCC(=O)O)c(C(F)(F)F)c3)nn2)c1 [Compound 110, 2,2′-((4,4′-((4-(ethylcarbamoyl)pyridine-2,6-diyl)bis(1H-1,2,3-triazole-4,1-diyl))bis(2-(trifluoromethyl)benzoyl))bis(azanediyl))diacetic acid] | display PEM activity on an RNA template | –
13 | CCNC(=O)c1cc(-n2cc(-c3ccc(C(=O)O)c(C(F)(F)F)c3)nn2)cc(-n2cc(-c3ccc(C(=O)O)c(C(F)(F)F)c3)nn2)c1 [Compound 116, 4,4′-((5-(ethylcarbamoyl)-1,3-phenylene)bis(1H-1,2,3-triazole-1,4-diyl))bis(2-(trifluoromethyl)benzoic acid)] | display PEM activity on an RNA template | –
14 | O=C(O)c1ccc(-n2cc(-c3ccc(-c4cn(-c5ccc(C(=O)O)c(C(F)(F)F)c5)nn4)o3)nn2)cc1C(F)(F)F [Compound 118, 4,4′-(furan-2,5-diylbis(1H-1,2,3-triazole-4,1-diyl))bis(2-(trifluoromethyl)benzoic acid)] | display PEM activity on an RNA template | –
